What was measured:
[1] = test system: commercial broiler chickens; experiment: Broiler experiment for leg anomalies (tibial dyschondroplasia); format: in vivo; design: dose or concentration left out as unconfirmed; conditions: after day 14 of treatment
Description: In experiment 2, male one-day old broiler chickens were fed a commercial diet containing 1,000 IUD/kg feed of vitamin D3 ad libitum. […] 76.8 μg 1,25-Dihydroxyvitamin D3 (determined after in vitro hydrolysis of the extract).

[2] = test system: Japanese quails (Coturnix japonica) on Vitamin D-deficient diet; experiment: Japanese quail eggshell bioassay for vitamin D activity; format: in vivo
Source text: From Rambeck et al. (see Rambeck et al, Ann. Nutr. Metab. 30, 9-14, (1986)) it is known that the quail egg shell assay is used as a simple bioassay to assess Vitamin D activity. According to this assay, Japanese quails (Coturnix japonica) of egg laying age and selected for a laying performance of >80% were set on a Vitamin D-deficient diet containing all other nutrients in optimal amounts. After approximately 8 days, the laying performance as the most sensitive marker dropped below 10%. Then, the test animals were randomly divided into groups of 10 animals and the diet was changed to the same diet, but supplemented with the substance to be tested. Laying performance was monitored for 21 days together with other markers of vitamin D-metabolism, such as alkaline phosphatase and calcium in plasma.
In Experiment 1 three groups of quails received 100, 200 and 400 international units of vitamin D3 per kg feed, 5 groups received 2, 8, 32, 128 and […] purified plant extract and one group was given synthetic 1, 25-Dihydroxyvitamin D3 (1 μg/kg feed) and another group received ground dried leaves of Solanum glaucophyllum (1000 mg/kg feed).

SMILES | Healthy animals. (%) [1] | Occurrence of TD (%) [1] | Occurrence of other leg anomalies (%) [1] | Eggshell weight (ESW) per day and animal, days 5-21 ([2]; 1 μg per kg feed) | Average egg weight between day 1 and 21 ([2]; 1.0 μg/kg feed) | Egg weight in % of standard group Vitamin D3 400 IUD/kg feed ([2]; 1.0 μg/kg feed) | Eggshell weight (ESW) per day and animal, days 5-21 ([2]; 100 IUD per kg feed) | Average egg weight between day 1 and 21 ([2]; 100 IUD/kg feed) | Egg weight in % of standard group Vitamin D3 400 IUD/kg feed ([2]; 100 IUD/kg feed) | Eggshell weight (ESW) per day and animal, days 5-21 ([2]; 200 IUD per kg feed) | Average egg weight between day 1 and 21 ([2]; 200 IUD/kg feed) | Egg weight in % of standard group Vitamin D3 400 IUD/kg feed ([2]; 200 IUD/kg feed) | Eggshell weight (ESW) per day and animal, days 5-21 ([2]; 400 IUD per kg feed) | Average egg weight between day 1 and 21 ([2]; 400 IUD/kg feed) | time by which laying performance passed 50% after beginning of treatment ([2]; onset of egg laying)
C=C1/C(=C\C=C2/CCC[C@]3(C)[C@@H]([C@H](C)CCCC(C)(C)O)CC[C@@H]23)C[C@@H](O)C[C@@H]1O [Synthetic 1,25(OH)2D3, 1,25-dihydroxyvitamin D3] | 92.9 b % | 3.55 *b % | 3.55 b % | 0.502 g | 10.58 g | 99% |  |  |  |  |  |  |  |  | 
C=C1CC[C@H](O)C/C1=C/C=C1\CCC[C@]2(C)[C@@H]([C@H](C)CCCC(C)C)CC[C@@H]12 [Vitamin D3, cholecalciferol] |  |  |  |  |  |  | 0.231 g | 9.61 g | 90% | 0.434 g | 10.40 g | 97% | 0.738 g | 10.70 g | 48 to 72 h
